Columns and labels:
[1] = tested on: EBV-positive NK/T lymphoma; assay: In vivo drug treatment of mice inoculated with NK-S1 cells; parameters: species or system NSG mice; conditions: 40 mg/kg intraperitoneally twice weekly
Protocol: In in vivo drug treatment with BCV, 6-week-old female NSG mice were inoculated with 0.5 × 10^6 cells (NK-S1), and BCV or a control solvent was administered intraperitoneally at a dosage of 40 mg/kg twice weekly. Tumor measurements were recorded twice weekly until the tumor size in the control group reached approximately 2000 mm^3. Mice were euthanized according to the IACUC guideline. The tumor sizes of the experimental group and the control group (n = 8 per group) were averaged at each time point (Days 1, 5, 8, 12, and 15) and compared statistically. Throughout the experiment, signs of toxicity including diarrhea and weight loss were monitored.

EBNA1 = assay: Western blot of EBNA1 expression in lymphoma cells; type: cell-based; conditions: NK-S1 and KAI-3; 0.1 and 1 µg/mL BCV for 72 hours; Fig. 4
Protocol: (§1) NK-S1 and KAI-3 cell lines were treated with 0.1 and 1 µg/mL BCV for 72 hours. Subsequently, whole-cell lysates were separated by SDS-PAGE using 4 to 15% Mini-PROTEAN™ TGX Stain-Free™ Protein Gel (Bio-Rad Laboratories, Inc., Hercules, CA, USA) and then transferred to a 0.2 µm PVDF membrane (Bio-Rad Laboratories, Inc., Hercules, California, USA). The membrane was blocked and then gently shaken overnight at 4°C in a solution containing 5% skimmed milk powder (Bio-Rad Laboratories, Inc., Hercules, CA, USA) or 5% bovine serum albumin (Sigma-Aldrich, Darmstadt, Germany), TBST solution (50 mM Tris/HCl, pH 7.4, 150 mM NaCl, 0.1% Tween-20), and primary antibodies (anti-EBNA1 antibody (Santa Cruz Biotechnology, Inc.) and anti-LMP1 antibody (Dako)). Exposure to an appropriate HRP-conjugated anti-mouse antibody (Cytiva, Washington D.C., USA) was performed for 1 hour. Finally, chemiluminescent detection was performed using SuperSignal Substrate Western Blotting Kit (Thermo Fisher Scientific Inc., Massachusetts, USA). Imaging was performed using ChemiDoc™ XRS+ (a system with Image Lab™ software, Bio-Rad Laboratories, Inc., Hercules, California, USA).

[2] = tested on: NK/T lymphoma cells (KAI-3, NK-S1, KHYG-1); assay: Cell viability (CellTiter-Glo 2.0), NK/T lymphoma cell proliferation; type: cell-based; conditions: Fig. 1
Protocol: (§2) Cell viability was determined using Promega CellTiter-Glo (registered trademark) 2.0 Cell Viability Assay (Promega Corporation, Madison, Wisconsin, USA) according to the manufacturer's protocol. Specifically, lymphoma cells were plated in a 96-well plate at a concentration of 2 × 10^3 cells per 100 µL of culture medium, and a drug (BCV) was added to each well at each concentration. At each time point, Promega CellTiter-Glo (registered trademark) 2.0 Cell Viability Assay reagent was added to the wells and incubated at room temperature for 10 minutes. Subsequently, […] was measured using a Tecan M200 Infinite 96-well plate reader and IControl software 1.6 (Tecan, Männedorf, Switzerland). Cell viability was evaluated as a percentage of a control absorbance. A dose-response curve was generated by plotting the percentage of viable cells against the drug concentration to analyze the growth-inhibitory effect. The IC50 values were estimated using GraphPad Prism version 8.0.2 (GraphPad Software). All reactions were performed in triplicate (n = 3). Furthermore, EBV positivity or EBV negativity of the cells was detected based on the presence or absence of an EBV-derived transcript (e.g., EBER, EBNA1, and the like).

STING pathway = assay: Whole transcriptome sequencing / GSEA / quantitative PCR, STING pathway genes; type: cell-based; conditions: NK-S1 and KAI-3; BCV 0.1 µg/mL and 1 µg/mL; Figs. 5B and 5C
Protocol: (§3) BCV-treated NK-S1 and KAI-3 cell lines were subjected to sequencing of the entire transcription product. Gene set enrichment analysis (GSEA) was performed using the Molecular Signatures Database (MSigDB) Hallmark gene set. […] Quantitative PCR was performed using Maxima SYBR Green/ROX qPCR Master Mix (Thermo Scientific, USA). The ΔCt value of a gene's mRNA expression was calculated as the difference between the Ct value of the gene and that of an internal control, GAPDH. The ΔΔCt was calculated by subtracting the ΔCt value of the treatment group from the ΔCt value of an untreated control group. The fold change in expression was calculated using the formula 2^ΔΔCt.

HMGB1 = assay: Immunogenic cell death: extracellular HMGB1 (Lumit HMGB1 immunoassay); type: cell-based; conditions: NK-S1 and KAI-3; BCV treatment; Fig. 6
Protocol: (§4) NK-S1 and KAI-3 cell lines were treated with BCV (0.1 ug/mL or 1 ug/mL) or DMSO alone for 72 hours. For calreticulin staining, cells were incubated with a calreticulin antibody (1:100, room temperature, 30 minutes) (#ab92516, Abcam Limited.) and washed prior to analysis. Then, the cells were resuspended in PBS and analyzed using a cell analyzer (BD LSR Fortessa, BD Biosciences, San Jose, CA, USA). Data were analyzed using FlowJo version 10.8.0 (BD Biosciences, San Jose, California). The extracellular level of HMGB1 in the case of BCV treatment was measured using Lumit HMGB1 immunoassay (Promega Corporation, Madison, Wisconsin, USA).

NK-S1 cell line = assay: Combined treatment cell viability (CellTiter-Glo 2.0), Chou-Talalay combination index; type: cell-based; conditions: for type of combined effect based on the combination index value: CI less than 1 indicates synergism; for effect of combined treatment compared to each drug alone: Fig. 7
Protocol: NK-S1 cell line was treated with a selected dose of etoposide, gemcitabine, or gamma irradiation, with or without BCV (0.1 µg/mL). Cell viability was quantified using Promega CellTiter-Glo (registered trademark) 2.0 Cell Viability Assay (Promega Corporation, Madison, Wisconsin, USA) according to the manufacturer's protocol. A combination index (CI) was calculated using Chou-Talalay median-effect analysis to determine if the effect was synergism, an additive effect, or antagonism. Specifically, a CI value less than 1 indicates synergism, and a CI value more than 1 indicates antagonism. A CI value close to 1 (i.e., between 0.9 and 1.1) was considered indicative of an additive effect.

[3] = tested on: eleven NK/T lymphoma cell lines (KAI-3, NK-S1, NK-92, KHYG-1, NK-YS, MEC-04, SNK-1, SNK-6, YT, HANK-1, or SNT-8); assay: Cell viability (CellTiter-Glo 2.0), eleven NK/T lymphoma cell lines; type: cell-based; conditions: Fig. 9
Protocol: The effect of BCV on cell viability was examined in eleven NK/T lymphoma cell lines (KAI-3, NK-S1, NK-92, KHYG-1, NK-YS, MEC-04, SNK-1, SNK-6, YT, HANK-1, or SNT-8). Cell viability was quantified using Promega CellTiter-Glo (registered trademark) 2.0 Cell Viability Assay (Promega Corporation, Madison, Wisconsin, USA) according to the manufacturer's protocol. In brief, cells were plated in a 96-well plate at a concentration of 2 × 10^3 cells per 100 µL of culture medium, and a drug was added at each concentration. After each time point, Promega CellTiter-Glo (registered trademark) 2.0 Cell Viability Assay reagent was added to the wells and incubated at room temperature for 10 minutes. Subsequently, […] was measured using a Tecan M200 Infinite 96-well plate reader and iControl software 1.6 (Tecan, Männedorf, Switzerland). Cell viability was calculated as a percentage of the control absorbance. A dose-response curve was generated by plotting the percentage of viable cells against the drug concentration to analyze the growth-inhibitory effect. The IC50 values were estimated using GraphPad Prism version 8.0.2 (GraphPad Software). All reactions were performed in triplicate (n = 3).

[4] = tested on: EBV-positive NK/T lymphoma cells (NK-S1); assay: Cell viability (CellTiter-Glo 2.0), comparison with antiviral agents; type: cell-based; conditions: compared to acyclovir, ganciclovir, adefovir, foscarnet, and penciclovir, Fig. 2
Protocol: as §2
The experimental procedure was the same as in Example 1, except that BCV, acyclovir, ganciclovir, adefovir, foscarnet, and penciclovir were used as the drugs.

calreticulin = assay: Immunogenic cell death: calreticulin staining by flow cytometry; type: cell-based; conditions: NK-S1 and KAI-3; BCV 0.1 ug/mL or 1 ug/mL for 72 hours; Fig. 6
Protocol: as §4

[5] = tested on: MYC-positive lymphoma cells (Raji, Daudi, VAL, BJAB, DB); assay: Cell viability (CellTiter-Glo 2.0), MYC-positive B-cell lymphoma cell lines; type: cell-based; conditions: 96 hours, Fig. 8
Protocol: Different B-cell lymphoma cell lines were individually treated with each concentration of BCV for 96 hours. Cell viability was quantified using Promega CellTiter-Glo (registered trademark) 2.0 Cell Viability Assay (Promega Corporation, Madison, Wisconsin, USA) according to the manufacturer's protocol. Information on the presence or absence of EBV and the molecular information were obtained by referring to a public database. The cell lines shown in Fig. 8 have been reported to be classified into groups as follows: Raji and Daudi as Burkitt's lymphoma (BL) cell lines; VAL and DB as diffuse large B-cell lymphoma (DLBCL) cell lines; and BJAB as a BL cell line or a DLBCL cell line. All of these are B lymphomas in which MYC is either translocated or amplified. Raji, Daudi, and VAL are EBV-positive cell lines, while BJAB and DB are EBV-negative cell lines. VAL is triple-hit lymphoma and DB is double-hit lymphoma.

Myc = assay: Whole transcriptome sequencing / GSEA / quantitative PCR, Myc expression; type: cell-based; conditions: NK-S1 and KAI-3
Protocol: as §3

LMP1 = assay: Western blot of LMP1 expression in lymphoma cells; type: cell-based; conditions: NK-S1 and KAI-3; 0.1 and 1 µg/mL BCV for 72 hours; Fig. 4
Protocol: as §1

[6] = BCV 0.1 µg/mL combined with etoposide
[7] = BCV 0.1 µg/mL combined with gemcitabine

CCCCCCCCCCCCCCCCOCCCOP(=O)(O)CO[C@H](CO)Cn1ccc(N)nc1=O [BCV, [(2S)-1-(4-amino-2-oxopyrimidin-1-yl)-3-hydroxypropan-2-yl]oxymethyl-(3-hexadecoxypropoxy)phosphinic acid]
enlargement of EBV-positive NK/T lymphoma (tumor size) ([1]; NK-S1 in NSG mice, Days 1-15, Figs. 3A to 3D): significantly suppressed the enlargement of EBV-positive NK/T lymphoma | animal's health status ([1]; NSG mice): good | signs of toxicity: diarrhea ([1]; NSG mice): no diarrhea observed | expression level of EBNA1 (EBNA1): reduced the expression level | IC50 value of cell growth-suppressive action ([2]; EBV-positive (KAI-3 and NK-S1) versus EBV-negative (KHYG-1) NK/T lymphoma cells): significantly lower for EBV-positive NK/T lymphoma cells (KAI-3 and NK-S1) compared to EBV-negative NK/T lymphoma cells (KHYG-1) | proliferation of NK/T lymphoma cells ([2]; KAI-3, NK-S1, KHYG-1): suppressed the proliferation of NK/T lymphoma cells | expression of a gene group in the STING pathway (STING pathway): increased | release of HMGB1 (HMGB1): clearly increased | type of combined effect based on the combination index value (NK-S1 cell line; [6]): synergistic effect | effect of combined treatment compared to each drug alone (NK-S1 cell line; [6]): significant enhancement of the effect | type of combined effect based on the combination index value (NK-S1 cell line; [7]): synergistic effect | effect of combined treatment compared to each drug alone (NK-S1 cell line; [7]): significant enhancement of the effect | IC50 values ([3]; four cell lines (KAI-3, NK-S1, NK-92, KHYG-1) versus the other seven cell lines): lower IC50 values compared to other cell lines | sensitivity to BCV ([3]; four cell lines (KAI-3, NK-S1, NK-92, KHYG-1)): high sensitivity to BCV | cell growth-suppressive effect [4]: significantly better cell growth-suppressive effect | number of calreticulin-positive cells (calreticulin): clearly increased | growth-suppressive effect on EBV-positive cells and EBV-negative cells ([5]; EBV-positive Raji, EBV-negative BJAB): strong growth-suppressive effect on both EBV-positive cells and EBV-negative cells | cell growth-suppressive action on MYC-positive lymphoma cells ([5]; Raji, BJAB): distinct cell growth-suppressive action | Myc expression (Myc; BCV 0.1 µg/mL and 1 µg/mL, Fig. 5A): significantly reduced Myc expression | expression of a gene group controlled by MYC (Myc; BCV-treated, Fig. 5): significantly reduced the expression of a gene group controlled by MYC | expression level of LMP1 (LMP1): reduced the expression level
